Assays:
[1] = test system: liver cancer; assay: Rate of response to sorafenib treatment (reduction in tumor size by CT and MRI, mRECIST) in liver cancer patients stratified by risk score or marker gene expression; assay type: in vivo, human
Experimental: In the following manner, RNA was extracted from each of the tissues and synthesized into cDNA.
The risk scores of a total of 29 liver cancer patients were calculated, and the risk score distribution of responders to sorafenib and the risk score distribution of non-responders to sorafenib were examined. Herein, whether or not sorafenib would have a therapeutic effect was determined based on the degree of reduction in tumor size by CT and MRI imagings, and criteria for the determination followed mRECIST (modified Response Evaluation Criteria in Solid tumors) criteria version 1.1.
In addition, after stratification of the liver cancer patients by classification, the rate of response to sorafenib treatment was examined in order to confirm improvement in clinical responses, and the results of the examination are shown in Table 5 below.

[2] = test system: hepatocellular carcinoma; conditions: cited from earlier work

CNC(=O)c1cc(Oc2ccc(NC(=O)Nc3ccc(Cl)c(C(F)(F)F)c3)cc2)ccn1 [sorafenib]
Response rate (%) ([1]; liver cancer patients with CDH1 expression ≦0.0067, 3 responders, 13 non-responders): 18.75% | Response rate (%) ([1]; liver cancer patients with ID2 expression ≦0.4965, 3 responders, 12 non-responders): 20.0% | Response rate (%) ([1]; liver cancer patients with MMP9 expression >0.0433, 3 responders, 15 non-responders): 16.67% | Response rate (%) ([1]; liver cancer patients with TCF3 expression >0.3711, 2 responders, 1 non-responder): 66.67% | Response rate (%) ([1]; liver cancer patients with risk score (CDH1, ID2, MMP9, TCF3) >87.59, 3 responders, 8 non-responders): 27.27% | treatment rate ([2]; hepatocellular carcinoma, unselected patients): 2-3% | therapeutic effect ([2]; known value, NEJM2008 359(4):378-390): about 2.3%
